For assay [1], the system named is coaD CRISPRi knockdown Mtb mutant (Mtb H37RvMA). In kind it is cell-based, Mycobacterium tuberculosis.
Assay [2] has as its system coaBC CRISPRi knockdown Mtb mutant (Mtb H37RvMA). In kind it is cell-based, Mycobacterium tuberculosis. The conditions noted are these: highest ATc concentrations compatible with uninhibited proliferation.

Where two headings read alike, the source gives them in different places.

Turning to `O=C(O)c1cnn(-c2ccccc2)c1OCCCc1c[nH]c2ccccc12` [compound 20], the “minimum inhibitory concentration, MIC” value in assay [1] is recorded as “≈ 60 μM”. In assay [1] (1.6 and 0.8 ng/mL ATc), the “Effect of ATc (coaD silencing) on susceptibility” value (from here on “Effect of ATc (coaD silencing)”) is given as “enhanced in an ATc concentration‐dependent manner”. Also, the “Effect of ATc (coaBC silencing) on susceptibility” value in assay [2] is “little‐to‐no effect”. For `NNC(=O)c1ccncc1` [isoniazid, reference compound], the “Effect of ATc (coaD silencing)” value in assay [1] was “did not render the coaD CRISPRi Mtb mutant more susceptible”. `CO[C@H]1/C=C/O[C@@]2(C)Oc3c(C)c(O)c4c(O)c(c(/C=N/N5CCN(C)CC5)c(O)c4c3C2=O)NC(=O)/C(C)=C\C=C\[C@H](C)[C@H](O)[C@@H](C)[C@@H](O)[C@@H](C)[C@H](OC(C)=O)[C@@H]1C` [rifampicin, reference compound]: the “Effect of ATc (coaD silencing)” value in assay [1] is recorded as “did not render the coaD CRISPRi Mtb mutant more susceptible”.

Values taken from publication PMC10947119 (Angewandte Chemie (International Ed. in English), 2023).
